Data: US11999701B1, “4,5-bis(4-chlorophenyl)-2-phenyl-1H-imidazol-1-yl as an antimicrobial compound” (KING FAISAL UNIVERSITY, priority 2023, dated 2024)

Experiments:
Type in all cases: cell-based
[1] = system: Bacillus cereus; assay: Agar plate disc-diffusion, antibacterial activity
Experimental: (§1) The agar plate disc-diffusion method was applied. […] The discs were then placed onto the surface of agar plates (nutrient agar for bacteria and Sabouraud's dextrose agar for fungi) seeded with the test organism. Each plate contained 15 mL of the agar medium, previously seeded with 0.2 mL of the broth culture of each organism pregrown for 18 hours. The plates were incubated at 37 °C for 48 h, and 72 h for fungi. The inhibition zones were measured in mm. Discs impregnated with DMSO were used as a control, and its inhibition zone was subtracted from the tested compound actual inhibition zone.

[2] = system: Escherichia coli; assay: Agar plate disc-diffusion, antibacterial activity
Experimental: as §1

[3] = system: Pseudomonas aeruginosa; assay: Agar plate disc-diffusion, antibacterial activity
Experimental: as §1

[4] = system: Staphylococcus aureus; assay: Agar plate disc-diffusion, antibacterial activity
Experimental: as §1

[5] = system: Aspergillus flavus; assay: Agar plate disc-diffusion, antifungal activity
Experimental: as §1

[6] = system: Chrysosporium keratinophilum; assay: Agar plate disc-diffusion, antifungal activity
Experimental: as §1

[7] = system: different microbes; assay: Antimicrobial activity, overall statement; details: against different microbes (bacteria and fungi of Tables 1 and 2)
Experimental: The agar plate disc-diffusion method was applied. Sterilized filter papers (6 mm in diameter) were wetted with 10 μL of a solution of 4,5-bis(4-chlorophenyl)-2-phenyl-1H-imidazole (IV) to be tested, containing 10 mg/mL in DMSO, and the discs were allowed to air dry. The discs were then placed onto the surface of agar plates (nutrient agar for bacteria and Sabouraud's dextrose agar for fungi) seeded with the test organism. Each plate contained 15 mL of the agar medium, previously seeded with 0.2 mL of the broth culture of each organism pregrown for 18 hours. The plates were incubated at 37 °C for 48 h, and 72 h for fungi. The inhibition zones were measured in mm. Discs impregnated with DMSO were used as a control, and its inhibition zone was subtracted from the tested compound actual inhibition zone.

[8] = A = concentration of comp. = 10,000 μL
[9] = B = concentration of comp. = 30,000 μL
[10] = C = concentration of comp. = 50,000 μL

## Clc1ccc(-c2nc(-c3ccccc3)[nH]c2-c2ccc(Cl)cc2)cc1 [IV, 4,5-bis(4-chlorophenyl)-2-phenyl-1H-imidazole]
[1]; [8]
  inhibition zone: 22 mm
[1]; [9]
  inhibition zone: 24 mm
[1]; [10]
  inhibition zone: 36 mm
[2]; [8]
  inhibition zone: 27 mm
[2]; [9]
  inhibition zone: 34 mm
[2]; [10]
  inhibition zone: 52 mm
[3]; [8]
  inhibition zone: 25 mm
[3]; [9]
  inhibition zone: 28 mm
[3]; [10]
  inhibition zone: 46 mm
[4]; [8]
  inhibition zone: 20 mm
[4]; [9]
  inhibition zone: 24 mm
[4]; [10]
  inhibition zone: 33 mm
[5]; [8]
  inhibition zone: 22 mm
[5]; [9]
  inhibition zone: 25 mm
[5]; [10]
  inhibition zone: 32 mm
[6]; [8]
  inhibition zone: 26 mm
[6]; [9]
  inhibition zone: 28 mm
[6]; [10]
  inhibition zone: 46 mm
[7]
  antimicrobial activities: excellent antimicrobial activities
